The results in this text go back to US8138168B1 (Takeda Pharmaceutical Company Limited, priority 2007, dated 2012).

The structures appear in SMILES notation.

For one assay, the target named is T1, Recombinant human renin (Homo sapiens, UniProt P00797).
T1 construct: isolate the active form (residues 67-406); made in house; host or cells: FreeStyle 293-F cells (transient expression of pcDNA3.1(+)/hREN)
T1 sequence (P00797 67-406): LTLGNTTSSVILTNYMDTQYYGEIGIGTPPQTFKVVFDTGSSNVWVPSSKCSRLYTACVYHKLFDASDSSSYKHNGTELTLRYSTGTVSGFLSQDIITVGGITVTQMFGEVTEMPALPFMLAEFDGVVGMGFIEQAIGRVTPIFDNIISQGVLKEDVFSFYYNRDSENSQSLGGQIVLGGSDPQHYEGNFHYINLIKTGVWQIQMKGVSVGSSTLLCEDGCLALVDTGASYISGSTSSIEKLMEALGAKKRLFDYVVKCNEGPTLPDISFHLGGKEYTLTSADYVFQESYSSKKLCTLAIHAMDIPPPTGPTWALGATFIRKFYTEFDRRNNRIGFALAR
Kind of assay: In vitro enzymatic activity assay of renin inhibitors (fluorogenic peptide substrate). In kind it is biochemical.
Conditions: not given
In a few lines: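 Recombinant human renin (3 nM final) pre-incubated 10 min at 37 °C with compounds in pH 7.4 Hepes/EDTA/DTT/0.1 mg/mL BSA/Brij35 buffer (optionally plus 2% BSA), 5% DMSO final; fluorogenic QXL520/HiLyteFluo488 peptide substrate added.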
With `COCCCn1c([C@@H]2CCCN(C(=O)C[C@H](N)CNC(=O)Nc3ccccc3Cl)C2)nc2ccccc21` [Compound 257, 1-((S)-2-amino-4-((R)-3-(1-(3-methoxypropyl)-1H-benzo[d]imidazol-2-yl)piperidin-1-yl)-4-oxobutyl)-3-(2-chlorophenyl)urea], the IC50 is under 100 nM.

Still in this assay, the particulars now being: isomers separated by preparative SFC; more or less active isomer as renin inhibitor.
On to `Cc1nc2ccccc2n1[C@H]1CCCN(C(=O)C[C@H](N)Cc2ccc3ccccc3c2)C1` [Compound 244, (R)-3-amino-1-((S)-3-(2-methyl-1H-benzo[d]imidazol-1-yl)piperidin-1-yl)-4-(naphthalen-2-yl)butan-1-one], for which the “Eutomer / distomer designation of the separated stereoisomers” value (shortened to “Eutomer / distomer designation”) is listed as “Eutomer”.

On to `Cc1nc2ccccc2n1[C@@H]1CCCN(C(=O)C[C@H](N)Cc2ccc3ccccc3c2)C1` [Compound 245, (R)-3-amino-1((R)-3-(2-methyl-1H-benzo[d]imidazol-1-yl)piperidin-1-yl)-4-(naphthalen-2-yl)butan-1-one], for which the “Eutomer / distomer designation” value is reported as “Distomer”.

Turning to `COCCCn1c([C@]2(O)CCCN(C(=O)C[C@H](N)Cc3ccc(Cl)cc3)C2)nc2ccccc21` [Compound 247, (R)-3-amino-4-(4-chlorophenyl)-1-((S)-3-hydroxy-3-(1-(3-methoxypropyl)-1H-benzo[d]imidazol-2-yl)piperidin-1-yl)butan-1-one], the “Eutomer / distomer designation” value is reported as “Distomer”.

The same assay, now with this note: read-out: IC50 of Exemplified Compounds Against Renin.
In the case of `COCCCn1c(C(C)(C)C)cnc1C1(O)CCCN(C(=O)C[C@H](N)Cc2ccc(-c3ccc(C(=O)OC)cc3)cc2)C1` (stereo partly drawn) [Compound 242, methyl 4′-((2R)-2-amino-4-(3-(5-tert-butyl-1-(3-methoxypropyl)-1H-imidazol-2-yl)-3-hydroxypiperidin-1-yl)-4-oxobutyl)biphenyl-4-carboxylate], the IC50 was over 1000 nM.

`COCCCc1nc2ccccc2n1[C@@H]1CCCN(C(=O)C[C@H](N)Cc2ccc3ccccc3c2)C1` [Compound 243, (R)-3-amino-1-((R)-3-(2-(3-methoxypropyl)-1H-benzo[d]imidazol-1-yl)piperidin-1-yl)-4-(naphthalen-2-yl)butan-1-one]: the IC50 was over 1000 nM.

For the compound `Cc1nc2ccccc2n1[C@H]1CCCN(C(=O)C[C@H](N)Cc2ccc3ccccc3c2)C1` [Compound 244, (R)-3-amino-1-((S)-3-(2-methyl-1H-benzo[d]imidazol-1-yl)piperidin-1-yl)-4-(naphthalen-2-yl)butan-1-one], the IC50 was over 1000 nM.

For `Cc1nc2ccccc2n1[C@@H]1CCCN(C(=O)C[C@H](N)Cc2ccc3ccccc3c2)C1` [Compound 245, (R)-3-amino-1((R)-3-(2-methyl-1H-benzo[d]imidazol-1-yl)piperidin-1-yl)-4-(naphthalen-2-yl)butan-1-one], the IC50 was over 1000 nM.

Turning to `COCCCn1c(C2CC(C)CN(C(=O)C[C@H](N)Cc3ccc4ccccc4c3)C2)nc2ccccc21` (stereo partly drawn) [Compound 246, (3R)-3-amino-1-(3-(1-(3-methoxypropyl)-1H-benzo[d]imidazol-2-yl)-5-methylpiperidin-1-yl)-4-(naphthalen-2-yl)butan-1-one], the IC50 was over 1000 nM.

With `COCCCn1c([C@]2(O)CCCN(C(=O)C[C@H](N)Cc3ccc(Cl)cc3)C2)nc2ccccc21` [Compound 247, (R)-3-amino-4-(4-chlorophenyl)-1-((S)-3-hydroxy-3-(1-(3-methoxypropyl)-1H-benzo[d]imidazol-2-yl)piperidin-1-yl)butan-1-one], the IC50 was over 1000 nM.

As for `COCCCn1c([C@@]2(O)CCCN(C(=O)C[C@H](N)Cc3ccc(Cl)cc3)C2)nc2ccccc21` [Compound 248, (R)-3-amino-4-(4-chlorophenyl)-1((R)-3-hydroxy-3-(1-(3-methoxypropyl)-1H-benzo[d]imidazol-2-yl)piperidin-1-yl)butan-1-one], the IC50 is over 1000 nM.

For `COCCCn1c([C@@H]2CCCN(C(=O)C[C@H](N)CNC(=O)c3ccc4ccccc4c3)C2)nc2ccccc21` [Compound 249, N-((S)-2-amino-4-((R)-3-(1-(3-methoxypropyl)-1H-benzo[d]imidazol-2-yl)piperidin-1-yl)-4-oxobutyl)-2-naphthamide], the 50% inhibitory concentration (IC50) was under 100 nM.

For `COCCCn1c([C@@H]2CCCN(C(=O)C[C@H](N)CNC(=O)Nc3ccccc3OC)C2)nc2ccccc21` [Compound 250, 1-((S)-2-amino-4-((R)-3-(1-(3-methoxypropyl)-1H-benzo[d]imidazol-2-yl)piperidin-1-yl)-4-oxobutyl)-3-(2-methoxyphenyl)urea], the IC50 is under 100 nM.

Take `COCCCn1c([C@@H]2CCCN(C(=O)C[C@H](N)CNC(=O)c3ccc(-c4ccccc4)o3)C2)nc2ccccc21` [Compound 251, N-((S)-2-amino-4-((R)-3-(1-(3-methoxypropyl)-1H-benzo[d]imidazol-2-yl)piperidin-1-yl)-4-oxobutyl)-5-phenylfuran-2-carboxamide]: the IC50 was under 100 nM.

Turning to `COCCCn1c([C@@H]2CCCN(C(=O)C[C@H](N)CNC(=O)c3ccc(-c4ccccc4)s3)C2)nc2ccccc21` [Compound 252, N-((S)-2-amino-4-((R)-3-(1-(3-methoxypropyl)-1H-benzo[d]imidazol-2-yl)piperidin-1-yl)-4-oxobutyl)-5-phenylthiophene-2-carboxamide], the IC50 is under 100 nM.

`COCCCn1c([C@@H]2CCCN(C(=O)C[C@H](N)CNC(=O)Nc3ccc(OC)cc3)C2)nc2ccccc21` [Compound 253, 1-((S)-2-amino-4-((R)-3-(1-(3-methoxypropyl)-1H-benzo[d]imidazol-2-yl)piperidin-1-yl)-4-oxobutyl)-3-(4-methoxyphenyl)urea]: the IC50 was under 100 nM.

Turning to `COCCCn1c([C@@H]2CCCN(C(=O)C[C@H](N)CNC(=O)Nc3cccc(OC)c3)C2)nc2ccccc21` [Compound 254, 1-((S)-2-amino-4-((R)-3-(1-(3-methoxypropyl)-1H-benzo[d]imidazol-2-yl)piperidin-1-yl)-4-oxobutyl)-3-(3-methoxyphenyl)urea], the IC50 is under 100 nM.

As to `COCCCn1c([C@@H]2CCCN(C(=O)C[C@H](N)CNC(=O)Nc3ccc(Cl)c(Cl)c3)C2)nc2ccccc21` [Compound 255, 1-((S)-2-amino-4-((R)-3-(1-(3-methoxypropyl)-1H-benzo[d]imidazol-2-yl)piperidin-1-yl)-4-oxobutyl)-3-(3,4-dichlorophenyl)urea], the 50% inhibitory concentration (IC50) was under 100 nM.

Consider `COCCCn1c([C@@H]2CCCN(C(=O)C[C@H](N)CNC(=O)Nc3cccc(Cl)c3)C2)nc2ccccc21` [Compound 256, 1-((S)-2-ainino-4-((R)-3-(1-(3-methoxypropyl)-1H-benzo[d]imidazol-2-yl)piperidin-1-yl)-4-oxobutyl)-3-(3-chlorophenyl)urea], for which the IC50 was under 100 nM.

`COCCCn1c([C@@H]2CCCN(C(=O)C[C@H](N)CNC(=O)Nc3ccc4c(c3)OCCO4)C2)nc2ccccc21` [Compound 258, 1-((S)-2-amino-4-((R)-3-(1-(3-methoxypropyl)-1H-benzo[d]imidazol-2-yl)piperidin-1-yl)-4-oxobutyl)-3-(2,3-dihydrobenzo[b][1,4]dioxin-6-yl)urea]: the IC50 was under 100 nM.

Turning to `COCCCn1c([C@@H]2CCCN(C(=O)C[C@H](N)CNC(=O)c3ccc(-c4cccs4)cc3)C2)nc2ccccc21` [Compound 259, N-((S)-2-amino-4-((R)-3-(1-(3-methoxypropyl)-1H-benzo[d]imidazol-2-yl)piperidin-1-yl)-4-oxobutyl)-4-(thiophen-2-yl)benzamide], the concentration for half-maximal inhibition (IC50) is under 100 nM.

Regarding `COCCCn1c([C@@H]2CCCN(C(=O)C[C@H](N)CNC(=O)c3ccc(-c4ccccc4F)o3)C2)nc2ccccc21` [Compound 260, N-((S)-2-amino-4-((R)-3-(1-(3-methoxypropyl)-1H-benzo[d]imidazol-2-yl)piperidin-1-yl)-4-oxobutyl)-5-(2-fluorophenyl)furan-2-carboxamide], the IC50 is under 100 nM.

For `COCCCn1c([C@@H]2CCCN(C(=O)C[C@H](N)CNC(=O)c3ccc(-c4ccsc4)cc3)C2)nc2ccccc21` [Compound 261, N-((S)-2-amino-4-((R)-3-(1-(3-methoxypropyl)-1H-benzo[d]imidazol-2-yl)piperidin-1-yl)-4-oxobutyl)-4-(thiophen-3-yl)benzamide], the IC50 is under 100 nM.

Consider `COCCCn1c([C@@H]2CCCN(C(=O)C[C@H](N)CNC(=O)c3ccc(Cl)c(Cl)c3)C2)nc2ccccc21` [Compound 262, N-((S)-2-amino-4-((R)-3-(1-(3-methoxypropyl)-1H-benzo[d]imidazol-2-yl)piperidin-1-yl)-4-oxobutyl)-3,4-dichlorobenzamide], for which the IC50 is 100 to 1000 nM.

Turning to `COCCCn1c([C@@H]2CCCN(C(=O)C[C@H](N)CNC(=O)c3cc4ccccc4o3)C2)nc2ccccc21` [Compound 263, N-((S)-2-amino-4-((R)-3-(1-(3-methoxypropyl)-1H-benzo[d]imidazol-2-yl)piperidin-1-yl)-4-oxobutyl)benzofuran-2-carboxamide], the IC50 fell in the range of 100 to 1000 nM.

On to `COCCCn1c([C@@H]2CCCN(C(=O)C[C@H](N)CNC(=O)c3ccc(-c4ccccc4)cc3)C2)nc2ccccc21` [Compound 264, N-((S)-2-amino-4-((R)-3-(1-(3-methoxypropyl)-1H-benzo[d]imidazol-2-yl)piperidin-1-yl)-4-oxobutyl)biphenyl-4-carboxamide], for which the IC50 lay within 100 to 1000 nM.

Turning to `COCCCn1c([C@@H]2CCCN(C(=O)C[C@H](N)CNC(=O)Nc3ccccc3OC(F)(F)F)C2)nc2ccccc21` [Compound 265, 1-((S)-2-amino-4-((R)-3-(1-(3-methoxypropyl)-1H-benzo[d]imidazol-2-yl)piperidin-1-yl)-4-oxobutyl)-3-(2-(trifluoromethoxy)phenyl)urea], the IC50 lay within 100 to 1000 nM.

Take `COCCCn1c([C@@H]2CCCN(C(=O)C[C@H](N)CNC(=O)Nc3ccc4c(c3)CCC4)C2)nc2ccccc21` [Compound 266, 1-((S)-2-amino-4-((R)-3-(1-(3-methoxypropyl)-1H-benzo[d]imidazol-2-yl)piperidin-1-yl)-4-oxobutyl)-3-(2,3-dihydro-1H-inden-5-yl)urea]: the IC50 fell in the range of 100 to 1000 nM.

With `COCCCn1c([C@@H]2CCCN(C(=O)C[C@H](N)CNC(=O)c3ccc(-c4ccc(Cl)cc4Cl)o3)C2)nc2ccccc21` [Compound 267, N-((S)-2-amino-4-((R)-3-(1-(3-methoxypropyl)-1H-benzo[d]imidazol-2-yl)piperidin-1-yl)-4-oxobutyl)-5-(2,4-dichlorophenyl)furan-2-carboxamide], the half-inhibitory concentration (IC50) was in the range of 100 to 1000 nM.
